The values below come from article PMC12040169 (PLOS Biology, 2025).

Broadly, the viability is a read-out of living cells in per cent, often relative to untreated cells.

Data set [1] relates to T1, CTL2-GFP (C. trachomatis L2/434/Bu, GFP-expressing).
T1 construct: L2/434/Bu, GFP-expressing
Nature of the data set: microbe, parasite or virus in culture. Also on record: Intracellular C. trachomatis growth in HeLa cells, bulk GFP fluorescence relative to DMSO. The conditions noted are these: Chlamydia trachomatis, HeLa, 28.5 h; bulk GFP, mean of 2; read-out: % of control remaining. The protocol: MICs were calculated as described above.

For data set [2], the system named is T2, C. trachomatis L2/434/Bu expressing GFP (CTL2-GFP).
T2 construct: L2/434/Bu GFP intracellular growth in HeLa cells
The experiment in a line: microbe, parasite or virus in culture. Also on record: C. trachomatis total inclusion area by high-content imaging, normalised to DMSO. Conditions: Chlamydia trachomatis, HeLa, 28.5 h; total inclusion area; read-out: % of control remaining. The source says: We screened a library of 36,785 small molecules displaying drug-like properties and covering a wide chemical space (Fig 1A and S2A Data). In this process, we also complemented the assay described above with an imaging-based readout (Fig 1B). After measurements of bulk GFP and resorufin fluorescence, cells were fixed, stained with the DNA dye Hoechst, and imaged at a high-content imaging platform to detect chlamydial inclusions (GFP) and host cell nuclei (Hoechst). The total area and number of inclusions in individual wells and the number of nuclei then served as additional proxies for chlamydial growth and host cell viability. […] MICs were calculated as described above.

A short description of data set [3]: in vitro. Also noted: Viability of infected HeLa host cells, resazurin conversion, bulk resorufin fluorescence relative to DMSO. Conditions: human, hela cells; bulk resorufin, mean of 2.

Turning to `c1ccc(-c2nc3cc4ccccc4cc3[nH]2)nc1` [CBK000130], in data set [1], the activity at 1 µM is 133%, the activity at 5 µM turned out to be 40.2% and the activity at 10 µM was determined as 18.3%. In data set [2], the activity at 1 µM worked out at 98.2%, the activity at 5 µM turned out to be 31.5% and the activity at 10 µM worked out at 14.1%. In data set [3], the viability at 28.5 h, 1 µM was 99.1%; the viability at 28.5 h, 5 µM came out at 95.7%; the viability at 28.5 h, 10 µM worked out at 90.5%.

In the case of `N#CC(CCCN1CCN(c2ccccc2)CC1)(c1ccccc1)c1ccccc1` [CBK002243C], in data set [1], the activity at 1 µM was 106%, the activity at 5 µM stood at 74% and the activity at 10 µM stood at 41.5%. Moreover, in data set [2], the activity at 1 µM stood at 42.5%, the activity at 5 µM amounted to 23.5% and the activity at 10 µM worked out at 17.3%. In data set [3], the viability at 28.5 h, 1 µM amounted to 99.6%; the viability at 28.5 h, 5 µM is 105%; the viability at 28.5 h, 10 µM was found to be 118%.

In the case of `NC(Cc1ccccc1)CN(CC1(c2ccc(Cl)cc2)CC1)C(=O)Nc1ccc2c(c1)OCO2` (stereo not drawn) [CBK002342C], in data set [1], the activity at 1 µM was found to be 211%, the activity at 5 µM is 102% and the activity at 10 µM stood at 98.8%. In data set [2], the activity at 1 µM was found to be 109%, the activity at 5 µM is 43.5% and the activity at 10 µM was 54%. Also, in data set [3], the viability at 28.5 h, 1 µM was 95.3%; the viability at 28.5 h, 5 µM turned out to be 95.4%; the viability at 28.5 h, 10 µM was 93.5%.

As to `CC(C)(CN)CN(Cc1c[nH]c(-c2ccccc2)n1)C(=O)Nc1ccc(C(C)(C)C)cc1` [CBK002462C], in data set [1], the activity at 1 µM came to 139%, the activity at 5 µM came to 101% and the activity at 10 µM came to 29.5%. Also, in data set [2], the activity at 1 µM was 106%, the activity at 5 µM turned out to be 55.9% and the activity at 10 µM amounted to 29%. In data set [3], the viability at 28.5 h, 1 µM came out at 91.6%; the viability at 28.5 h, 5 µM stood at 89.2%; the viability at 28.5 h, 10 µM was 72.5%.

In the case of `CN(C)[C@H]1CCC[C@@H]1C(=O)Nc1ccc(Cl)c(Cl)c1` [CBK003406], in data set [1], the activity at 1 µM was 90.9%, the activity at 5 µM stood at 67.2% and the activity at 10 µM was determined as 13%. For the same compound, in data set [2], the activity at 1 µM amounted to 112%, the activity at 5 µM was determined as 76.4% and the activity at 10 µM stood at 20.8%. In data set [3], the viability at 28.5 h, 1 µM is 105%; the viability at 28.5 h, 5 µM amounted to 109%; the viability at 28.5 h, 10 µM turned out to be 107%.

Regarding `C[C@@H]1CN(c2ccc(C(F)(F)F)c(OCc3ccccc3)n2)CCN1` [CBK003987A], in data set [1], the activity at 1 µM is 110%, the activity at 5 µM turned out to be 90.5% and the activity at 10 µM turned out to be 35%. Besides, in data set [2], the activity at 1 µM was determined as 70.4%, the activity at 5 µM is 53.4% and the activity at 10 µM was found to be 17.6%. For the same compound, in data set [3], the viability at 28.5 h, 1 µM worked out at 102%; the viability at 28.5 h, 5 µM worked out at 98.9%; the viability at 28.5 h, 10 µM was found to be 113%.

Take `CCOc1ccsc1C(=O)Nc1cc(C)ccn1` [CBK004029]: in data set [1], the activity at 1 µM came out at 122%, the activity at 5 µM worked out at 61.7% and the activity at 10 µM was determined as 32.4%. In addition, in data set [2], the activity at 1 µM was 116%, the activity at 5 µM was 64.9% and the activity at 10 µM came out at 19.7%. In data set [3], the viability at 28.5 h, 1 µM stood at 92.3%; the viability at 28.5 h, 5 µM is 92.3%; the viability at 28.5 h, 10 µM is 71.7%.

On to `Cc1cccc(N(C)S(=O)(=O)c2ccc(N3CCCNCC3)c3ccccc23)c1C` [CBK004430C], for which, in data set [1], the activity at 1 µM was found to be 142%, the activity at 5 µM worked out at 95.8% and the activity at 10 µM turned out to be 45.1%. Further, in data set [2], the activity at 1 µM was found to be 121%, the activity at 5 µM amounted to 56.7% and the activity at 10 µM was 8.36%. In data set [3], the viability at 28.5 h, 1 µM worked out at 89.7%; the viability at 28.5 h, 5 µM was found to be 84.9%; the viability at 28.5 h, 10 µM was 88.8%.

Consider `COc1cccc(CNC(C(=O)O)c2ccc3c(c2)OCO3)c1` (stereo not drawn) [CBK015420D], for which, in data set [1], the activity at 1 µM was found to be 107%, the activity at 5 µM was 30.9% and the activity at 10 µM came out at 12.5%. Further, in data set [2], the activity at 1 µM is 103%, the activity at 5 µM stood at 49.9% and the activity at 10 µM was determined as 20.3%. Also, in data set [3], the viability at 28.5 h, 1 µM is 92.7%; the viability at 28.5 h, 5 µM is 92.5%; the viability at 28.5 h, 10 µM turned out to be 87.4%.

Consider `CC(Oc1cccc2ccccc12)C(=S)N(C)c1ccccc1` (stereo not drawn) [CBK016158], for which, in data set [1], the activity at 1 µM came to 98.8%, the activity at 5 µM came out at 81.4% and the activity at 10 µM came out at 67.6%. In addition, in data set [2], the activity at 1 µM worked out at 105%, the activity at 5 µM worked out at 98.3% and the activity at 10 µM was 84.8%. Besides, in data set [3], the viability at 28.5 h, 1 µM came to 113%; the viability at 28.5 h, 5 µM came out at 117%; the viability at 28.5 h, 10 µM was 107%.

Take `Cc1cc(Br)ccc1S(=O)(=O)N(C)c1ccc(N2CCNCC2)c2ccccc12` [CBK016170C]: in data set [1], the activity at 1 µM is 106%, the activity at 5 µM is 75.3% and the activity at 10 µM is 35.2%. In data set [2], the activity at 1 µM was 63.9%, the activity at 5 µM stood at 26.9% and the activity at 10 µM was found to be 12.9%. In data set [3], the viability at 28.5 h, 1 µM is 91.8%; the viability at 28.5 h, 5 µM worked out at 92.1%; the viability at 28.5 h, 10 µM turned out to be 112%.

As for `CCC1C(c2ccc(C)cc2)=CCC(C(=O)NCCCN(C)C)C1C` (stereo not drawn) [CBK016514], in data set [1], the activity at 1 µM was determined as 112%, the activity at 5 µM was 33.9% and the activity at 10 µM was 9.47%. Besides, in data set [2], the activity at 1 µM turned out to be 109%, the activity at 5 µM was determined as 44.4% and the activity at 10 µM amounted to 8.47%. Moreover, in data set [3], the viability at 28.5 h, 1 µM was found to be 104%; the viability at 28.5 h, 5 µM stood at 88.9%; the viability at 28.5 h, 10 µM was found to be 100%.

For `CCCN(CCC)CCc1cccc2c1CCN2C(=O)c1cc2ccccc2s1` [CBK017871C], in data set [1], the activity at 1 µM was found to be 42.3%, the activity at 5 µM stood at 18.2% and the activity at 10 µM was found to be 9.45%. Moreover, in data set [2], the activity at 1 µM turned out to be 58%, the activity at 5 µM is 26.8% and the activity at 10 µM was determined as 2.13%. In data set [3], the viability at 28.5 h, 1 µM amounted to 96.8%; the viability at 28.5 h, 5 µM was 96.9%; the viability at 28.5 h, 10 µM turned out to be 97.3%.

Turning to `COc1ccccc1N/C(=N\OCc1ccc(Cl)cc1Cl)c1nonc1N` [CBK018391], in data set [1], the activity at 1 µM is 137%, the activity at 5 µM was 122% and the activity at 10 µM amounted to 103%. Besides, in data set [2], the activity at 1 µM turned out to be 89.5%, the activity at 5 µM was found to be 84% and the activity at 10 µM is 56.1%. Moreover, in data set [3], the viability at 28.5 h, 1 µM stood at 90.7%; the viability at 28.5 h, 5 µM came out at 92.4%; the viability at 28.5 h, 10 µM stood at 94.7%.

Regarding `CCc1nnc(NS(=O)(=O)c2ccc(NC(=S)NC(=O)c3ccco3)cc2)s1` [CBK018917], in data set [1], the activity at 1 µM came out at 117%, the activity at 5 µM came to 56.1% and the activity at 10 µM amounted to 18.8%. In data set [2], the activity at 1 µM was 79.7%, the activity at 5 µM is 57% and the activity at 10 µM turned out to be 24.2%. Besides, in data set [3], the viability at 28.5 h, 1 µM came to 100%; the viability at 28.5 h, 5 µM came to 94.7%; the viability at 28.5 h, 10 µM stood at 115%.

As for `COc1ccc(CCN(CCc2ccccc2)CC(O)COc2cccc3c2CCCC3)cc1` (stereo not drawn) [CBK024506T], in data set [1], the activity at 1 µM is 108%, the activity at 5 µM was 104% and the activity at 10 µM was 51%. Moreover, in data set [2], the activity at 1 µM is 99%, the activity at 5 µM was determined as 114% and the activity at 10 µM came to 55.3%. In data set [3], the viability at 28.5 h, 1 µM turned out to be 97.4%; the viability at 28.5 h, 5 µM stood at 95.2%; the viability at 28.5 h, 10 µM came out at 101%.

As to `Cc1nn(C)c(N2CCN(C(=O)OC(C)(C)C)CC2)c1N` [CBK034182], in data set [1], the activity at 1 µM came to 120%, the activity at 5 µM amounted to 91.7% and the activity at 10 µM is 38.1%. In data set [2], the activity at 1 µM came to 122%, the activity at 5 µM amounted to 92% and the activity at 10 µM was determined as 53.1%. Further, in data set [3], the viability at 28.5 h, 1 µM was 90.6%; the viability at 28.5 h, 5 µM worked out at 94.8%; the viability at 28.5 h, 10 µM was 88.5%.

Take `CCCCCC(=O)Nc1ccc(S(=O)(=O)Nc2nnc(CC)s2)cc1` [CBK045478]: in data set [1], the activity at 1 µM stood at 137%, the activity at 5 µM amounted to 47.1% and the activity at 10 µM was 29.6%. In data set [2], the activity at 1 µM turned out to be 122%, the activity at 5 µM stood at 53% and the activity at 10 µM turned out to be 48.9%. Also, in data set [3], the viability at 28.5 h, 1 µM turned out to be 94.8%; the viability at 28.5 h, 5 µM is 93.6%; the viability at 28.5 h, 10 µM worked out at 91.2%.

For `CC(=O)Nc1ccc(S(=O)(=O)Nc2ccc(C(=O)Nc3ccc(F)cc3)cc2)cc1` [CBK050401], in data set [1], the activity at 1 µM came out at 101%, the activity at 5 µM was determined as 31.9% and the activity at 10 µM was 14.2%. Further, in data set [2], the activity at 1 µM was 114%, the activity at 5 µM was found to be 48.5% and the activity at 10 µM was 30%. In data set [3], the viability at 28.5 h, 1 µM was determined as 93.4%; the viability at 28.5 h, 5 µM was 87.7%; the viability at 28.5 h, 10 µM was found to be 91.8%.
